The source of these data is patent publication US20240358721A1, “GASDERMIN-D INHIBITORS AND USES THEREOF FOR TREATING PULMONARY VASO-OCCLUSION” (UNIVERSITY OF PITTSBURGH-OF THE COMMONWEALTH SYSTEM OF …, priority 2021, published 2024).

“Also recorded” adds a separate entry of the source.

The assay concerns SCD mice. Nature of the assay: qFILM assessment of pulmonary vaso-occlusion in SCD mice IV administered oxy-Hb. The format is in vivo, mouse. As to conditions: LDC7559 10 mg/kg, Z-VAD-FMK 0.004 μmol/kg. An excerpt:
Quantitative fluorescence intravital lung microscopy (qFILM) was used to assess the absence or presence of platelet-neutrophil aggregate mediated pulmonary vaso-occlusion. Pulmonary microcirculation (pseudo-colored purple), neutrophils (red) and platelets (pseudo-colored green) were labeled in vivo by IV administration of FITC dextran, AF546-anti-Ly6G Ab and V450-anti-CD49b Ab, respectively. […] White arrows denote the direction of blood flow within the pulmonary arterioles. Alveoli are marked with asterisks. Scale bars 20 μm. The diameter of pulmonary arteriole in B-E is ˜22 μm, 32 μm, 31.5 μm, and 31 μm, respectively. […] Refer Online Data Supplement for details. […] The data for mice with SCD IV administered 10 oxy-Hb (n=5 mice; 75 FOVs) are included as black bars in FIGS. 1N and 1O for relative comparison. qFILM FOV size ˜65 536 μm^2. Data represent mean ±SE and are compared using Student t test. *P<0.05 (FIG. 1P) Schematic showing the main findings of the study. The sterile inflammatory milieu (DAMPs, IFN-I signaling, and ROS) in SCD promotes caspase-4 (humans) or caspase-11 (mouse)-dependent cleavage of neutrophil GSDMD into the active form GSDMD-NT, leading to the shedding of NETs in the liver microcirculation. Once shed, these NETs are carried by the blood as cNETs to the lung, where they promote neutrophil-platelet aggregation in the pulmonary arterioles, leading to PVO and lung injury (acute chest syndrome).
Intravital lung microscopy (experimental scheme shown in FIG. 1A) was conducted in live mice to assess whether preventing liver-to-lung embolization of cNETs by inhibiting or deleting GSDMD-signaling leads to amelioration of pulmonary vaso-occlusion. Although large neutrophil-platelet aggregates (marked with dotted ellipses) were seen occluding the arteriolar bottle-necks, leading to impaired blood flow in the lung of SCD mice IV administered 10 μmole/kg oxy-Hb (FIG. 1B), such aggregates were rare in the lung of SCD mice IV administered 10 μmole/kg oxy-Hb with 0.004 μmol/kg pan-caspase inhibitor Z-VAD-FMK (FIG. 1C) or 10 mg/kg GSDMD-NT inhibitor LDC7559 (FIG. 1D) or 20 mg/kg GSDMD-NT inhibitor Necrosulfonamide (FIG. 1E). […] The twofold higher dose of 20 μmole/kg IV oxy-Hb also led to the development of lung vaso-occlusion in WT but not Gsdmd^−/− mice (FIG. 2). […] P-selectin deficiency led to an approximately 50% reduction in pulmonary vaso-occlusion in SCD-Selp^−/− mice administered 10 μmole/kg IV oxy-Hb (FIG. 3), however, IV administration of oxy-Hb with GSDMD-NT inhibitor (LDC7559) led to further threefold (significant) reduction in pulmonary vaso-occlusions per FOV (FIGS. 1N and 4A, and FIG. 5) and absence of large pulmonary vaso-occlusions (area>1000 μm^2) per FOV (FIG. 10) in SCD-Selp^−/− mice.
Quantitative fluorescence intravital lung microscopy (qFILM) has been used widely for in vivo assessment of pulmonary vasoocclusion in mice with SCD [Bennewitz M F et al., (2017); Vats R, Brzoska T, Bennewitz M F, et al. (2020); Vats R, Tutuncuoglu E, Pradhan-Sundd T, Tejero J, Shaw G D, Sundd P. (2020); Bennewitz M F, Tutuncuoglu E, Gudapati S, et al. (2020)] In the current study, qFILM was used to assess pulmonary vaso-occlusion and detect NETs in the intact lung microcirculation of live mice following IV challenge with saline, oxy-hemoglobin (oxy-Hb), hemin, or lipo-polysaccharide with or without pretreatment with N-terminus active domain (GSDMD-NT) inhibitors LDC7559 [Sollberger G, Choidas A, Burn G L, et al. (2018)], NSA [Rathkey J K, Zhao J, Liu Z, et al. (2018)], Disulfiram [Hu J J, Liu X, Xia S, et al. (2020)], or the pan-caspase inhibitor Z-VAD-FMK [Sollberger G, Choidas A, Burn G L, et al. (2018)], haptoglobin [Belcher J D, Chen C, Nguyen J, et al. (2014)], or TLR4-inhibitor (TAK242) [Belcher J D, Chen C, Nguyen J, et al. (2014)]. qFILM was conducted with a Nikon multiphoton excitation fluorescence microscope and an APO LWD 25×water immersion objective with 1.1 NA. […]

Setting [1] is: IV 10 μmole/kg oxy-Hb with inhibitor vs oxy-Hb alone, NSA 20 mg/kg.
[2] abbreviates: IV 10 μmole/kg oxy-Hb with inhibitor, NSA 20 mg/kg.

Regarding `COc1ccccc1-c1cc2n(n1)Cc1ccc(NC(C)=O)cc1OC2` [LDC7559], under setting [1], the “Number of PVOs per Field of View (#PVOs/FOV)” value was “significantly less; also recorded: significantly reduced” and the “number of large PVOs (with area>1000 μm^2) per FOV” value is recorded as “significantly less; also recorded: significantly reduced”. Under setting [2], the “blood flow in the lung (rapidly transiting erythrocytes)” value was “significantly improved” and the “lung vaso-occlusion in representative qFILM images” value is “absence of lung vaso-occlusion; also recorded: lack of pulmonary vaso-occlusion”. The “large neutrophil-platelet aggregates occluding the arteriolar bottle-necks in the lung” value (IV 10 μmole/kg oxy-Hb with inhibitor, Necrosulfonamide 20 mg/kg) is given as “rare”.
